The values that follow come from US11319322B2, “Substituted aryl ether compound, preparation method thereof, pharmaceutical composition and use thereof” (Xiamen University, priority 2017, dated 2022).

The structures appear in SMILES notation.

One assay deals with T1, KIF5B-RET-BaF3 (Homo sapiens, UniProt P07949).
T1 construct: fused on or other part: P33176 (Kinesin-1 heavy chain)
As to the kind of experiment: Growth inhibition of KIF5B-RET-BaF3 cells stably transfected with kinase (MTS). It is filed as cell-based. To be noted: 48 h, read-out: KIF5B-RET (IC50/nM). How it is done: (§1) Growth inhibitory activity of compounds on cell lines stably transfected with kinase
(§2) The activity of compounds against kinase RET is evaluated by their effect of inhibiting growth of cell lines stably transfected with kinase CCDC6-RET-BaF3, KIF5B-RET-BaF3, and wild-type BaF3 (Proc. Natl. Acad. Sci. USA., 2006, 103, 3153-8.). The growth of the cell lines stably transfected with kinase CCDC6-RET-BaF3, KIF5B-RET-BaF3 depends on their kinase activity. If a compound can inhibit the activity of the kinase RET per se or the activity of the RET signaling pathway, the compound can inhibit the growth of BaF3 cells stably transfected with kinase. […] Therefore, a larger ratio between IC50 of a compound to wild-type BaF3 and IC50 of the compound to the cell lines stably transfected with kinase CCDC6-RET-BaF3, KIF5B-RET-BaF3 indicates better targeting.
(§3) The specific test method is given as follows:
(§4) 1) Medium: DMEM (Dulbecco's modified eagle medium) or RPMI 1640 (containing 10% fetal bovine serum, 100 μg/mL ampicillin, 100 μg/mL streptomycin).
(§5) 2) Reagents: MTS reaction solution (containing 2 mg/mL of MTS [3-(4,5-dimethylthiazol-2-yl)-5-(3-carboxymethoxyphenyl)-2-(4-sulfophenyl)-2H-tetrazolium, inner Salt]; 100 μg/mL PES (phenazine […])).
(§6) 3) Compound test: cells stably transfected with kinase (CCDC6-RET-BaF3, KIF5B-RET-BaF3) or wild-type BaF3 cells (2×10^4 cells/well) were incubated into a 96-well culture plate, the volume of cell culture fluid was 90 μL, and then 10 μL of the compound at each gradient concentration was added (the highest concentration was 10 μM, which was diluted stepwise by ⅓, and 8 concentration points were set in total; the system contained 0.1% DMSO (dimethyl sulfoxide)). The cell plate with uniformly mixed compound was cultured in a cell culture incubator (37° C.; 5% CO2) for 48 h, then 20 μL of MTS reaction solution was added, uniformly mixed and incubated in the cell culture incubator (37° C.; 5% CO2) for 1-4 hr, OD values at 490 nm were measured by a microplate reader (VARIOSKAN FLASH, Thermo). Three parallels were set in each group of experiments, with 0.1% (a final concentration) DMSO as a negative control, and a medium without cells or compounds as a blank control. The cell growth inhibition rate was calculated by the following formula: Cell growth inhibition rate %=1−(ODexperimental group−ODblank group)/(ODnegative group−ODblank group)×100%
(§7) 4) IC50 calculation: The semi-inhibitory concentration of the compound acting on cell growth was calculated using GradPad Prism 5 software according to the measured cell growth inhibition rate.

A further assay concerns the target T2, CCDC6-RET-BaF3 (Homo sapiens, UniProt P07949).
T2 construct: fused on or other part: Q16204 (Coiled-coil domain-containing protein 6)
As to the kind of experiment: Growth inhibition of CCDC6-RET-BaF3 cells stably transfected with kinase (MTS). It is filed as cell-based. To be noted: 48 h, read-out: CCDC6-RET (IC50/nM). The procedure: as §1, §2, §3, §4, §5, §6, §7

T2 sequence (P07949 whole entry, change not shown, the tested form may be a part): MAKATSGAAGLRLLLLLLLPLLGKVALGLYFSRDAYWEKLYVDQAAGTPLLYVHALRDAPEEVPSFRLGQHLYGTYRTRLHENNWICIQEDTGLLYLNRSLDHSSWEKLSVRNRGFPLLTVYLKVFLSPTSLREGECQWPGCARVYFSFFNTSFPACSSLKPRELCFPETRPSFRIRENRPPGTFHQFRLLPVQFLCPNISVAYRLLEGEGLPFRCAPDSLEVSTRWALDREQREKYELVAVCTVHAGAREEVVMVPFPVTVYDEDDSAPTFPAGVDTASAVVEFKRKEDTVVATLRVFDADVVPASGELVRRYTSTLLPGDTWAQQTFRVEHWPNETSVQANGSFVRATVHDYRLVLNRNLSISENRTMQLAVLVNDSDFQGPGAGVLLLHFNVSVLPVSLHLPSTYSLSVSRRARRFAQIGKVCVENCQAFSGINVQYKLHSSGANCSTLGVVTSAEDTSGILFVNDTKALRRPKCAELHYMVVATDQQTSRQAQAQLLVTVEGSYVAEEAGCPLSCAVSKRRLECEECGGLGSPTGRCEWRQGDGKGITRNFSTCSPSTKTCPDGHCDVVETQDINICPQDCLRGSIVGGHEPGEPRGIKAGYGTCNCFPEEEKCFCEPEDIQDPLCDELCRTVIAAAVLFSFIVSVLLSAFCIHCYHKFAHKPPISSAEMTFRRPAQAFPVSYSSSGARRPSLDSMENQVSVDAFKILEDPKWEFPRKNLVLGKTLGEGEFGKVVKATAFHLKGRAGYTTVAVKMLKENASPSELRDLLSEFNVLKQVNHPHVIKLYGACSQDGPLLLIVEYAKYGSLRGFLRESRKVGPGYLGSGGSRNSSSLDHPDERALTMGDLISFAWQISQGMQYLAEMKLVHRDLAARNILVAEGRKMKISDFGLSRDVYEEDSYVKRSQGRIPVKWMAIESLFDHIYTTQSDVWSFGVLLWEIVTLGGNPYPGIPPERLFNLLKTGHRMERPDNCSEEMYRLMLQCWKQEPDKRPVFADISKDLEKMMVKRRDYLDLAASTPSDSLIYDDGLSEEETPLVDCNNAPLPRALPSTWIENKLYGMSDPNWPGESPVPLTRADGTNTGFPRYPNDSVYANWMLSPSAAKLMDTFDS
T1 sequence (P07949 whole entry, change not shown, the tested form may be a part): as above

Take `Cc1ccc(Oc2nc(-c3cccc(O)c3)nc3nn(C)cc23)cc1C(=O)Nc1ccc(CN2CCN(C)CC2)c(C(F)(F)F)c1` [IV-n-6]: the GI50 on KIF5B-RET-BaF3 was determined as 4230 nM; at CCDC6-RET-BaF3, 4310 nM.
As to `Cc1ccc(NC(=O)c2ccc(CN3CCN(C)CC3)c(C(F)(F)F)c2)cc1Oc1nc(-c2cccnc2)nc2ccn(C)c12` [III-i-3], the results for the GI50 on KIF5B-RET-BaF3 and on CCDC6-RET-BaF3 were 3630 nM and 4340 nM, respectively.
The corresponding values for `Cc1ccc(-c2nc(Oc3ccc(Cl)c(NC(=O)c4ccc(CN5CCN(C)CC5)c(C(F)(F)F)c4)c3)c3[nH]ccc3n2)cc1` [III-k-15] are 2380 nM and 2200 nM.
Consider `Cc1ccc(Oc2nc(-c3ccncc3)nc3ccn(C)c23)cc1NC(=O)c1ccc(CN2CCN(C)CC2)c(C(F)(F)F)c1` [III-j-6], for which the GI50 at KIF5B-RET-BaF3 worked out at 13.2 nM; on CCDC6-RET-BaF3 it was 28 nM.
The like results for `CC(=O)NC1CCN(c2ccc(NC(=O)c3ccc(C)c(Oc4nc(-c5ccncc5)nc5c4cnn5C)c3)cc2C(F)(F)F)CC1` [II-v-13] were, in that order, 587 nM and 533 nM.
The like results for `Cc1ccc(C(=O)Nc2ccc(CN3CCN(C)CC3)c(C(F)(F)F)c2)cc1Oc1nc(N2CCN(C)CC2)nc2c1cnn2C` [II-m-17] were, in that order, 160 nM and 1100 nM.
`Cc1ccc(NC(=O)c2ccc(CN3CCN(C)CC3)c(C(F)(F)F)c2)cc1Oc1nc(-c2cccnc2)nc2c1cnn2C` [II-i-1]: the GI50 turned out to be 411 nM on KIF5B-RET-BaF3 and 477 nM at CCDC6-RET-BaF3.
The like results for `Cc1ccc(Oc2nc(-c3ccccc3)nc3nn(C)cc23)cc1C(=O)Nc1ccc(CN2CCN(C)CC2)c(C(F)(F)F)c1` [IV-n-3] were, in that order, 3540 nM and 4150 nM.
The like results for `CN1CCN(Cc2ccc(C(=O)Nc3cccc(Oc4nc(-c5cccnc5)nc5cc[nH]c45)c3)cc2C(F)(F)F)CC1` [III-h-1] were, in that order, 1540 nM and 2810 nM.
The like results for `CN1CCN(Cc2ccc(C(=O)Nc3cccc(Oc4nc(-c5ccncc5)nc5c4cnn5C)c3)cc2C(F)(F)F)CC1` [II-h-2] were, in that order, 106 nM and 140 nM.
Turning to `CCC(=O)NCC1CCN(c2ccc(NC(=O)c3ccc(C)c(Oc4nc(-c5cccnc5)nc5c4cnn5C)c3)cc2C(F)(F)F)CC1` [II-v-7], the GI50 at KIF5B-RET-BaF3 and at CCDC6-RET-BaF3 was 1200 nM each time.
Turning to `Cc1ccc(C(=O)Nc2ccc(CN3CCN(C)CC3)c(C(F)(F)F)c2)cc1Oc1nc(-c2ccncc2)nc2c1cnn2C(C)C` [II-m-23], the GI50 on KIF5B-RET-BaF3 came out at 916 nM; at CCDC6-RET-BaF3, 1100 nM.
`Cc1ccc(Oc2nc(-c3cccnc3)nc3cc[nH]c23)cc1C(=O)Nc1cc(CN2CCN(C)CC2)cc(C(F)(F)F)c1` [III-r-1]: the values for the GI50 on KIF5B-RET-BaF3 and at CCDC6-RET-BaF3 were 4770 nM and 4450 nM, respectively.
The like results for `CN1CCN(Cc2ccc(C(=O)Nc3cccc(Oc4nc(-c5cccnc5)nc5ccn(C)c45)c3)cc2C(F)(F)F)CC1` [III-h-3] were, in that order, 2140 nM and 4100 nM.
For the molecule `Cc1ccc(Oc2nc(-c3ccsc3)nc3c2cnn3C)cc1NC(=O)c1ccc(CN2CCN(C)CC2)c(C(F)(F)F)c1` [II-j-4], the GI50 at KIF5B-RET-BaF3 amounted to 2360 nM; on CCDC6-RET-BaF3, 2070 nM.
On to `CCC(=O)NCC1CCN(c2ccc(NC(=O)c3ccc(C)c(Oc4nc(-c5cccnc5)nc5[nH]ncc45)c3)cc2C(F)(F)F)CC1` [II-v-16], for which the GI50 came out at 3070 nM on KIF5B-RET-BaF3 and 2490 nM at CCDC6-RET-BaF3.
The corresponding values for `CN1CCN(Cc2ccc(NC(=O)c3cc(Oc4nc(-c5cccnc5)nc5c4cnn5C)ccc3Cl)cc2C(F)(F)F)CC1` [II-o-1] are 4020 nM and 4170 nM.
The like results for `CN1CCN(Cc2ccc(NC(=O)c3cc(Oc4nc(-c5ccc(O)cc5)nc5nn(C)cc45)ccc3Cl)cc2C(F)(F)F)CC1` [IV-o-7] were, in that order, 1610 nM and 1510 nM.
Turning to `CCC(=O)NCC1CCN(c2ccc(NC(=O)c3ccc(C)c(Oc4nc(-c5ccncc5)nc5c4cnn5C)c3)cc2C(F)(F)F)CC1` [II-v-9], the GI50 worked out at 934 nM at KIF5B-RET-BaF3 and 961 nM at CCDC6-RET-BaF3.
The like results for `Cc1ccc(C(=O)Nc2ccc(CN3CCN(C)CC3)c(C(F)(F)F)c2)cc1Oc1nc(-c2cccnc2)nc2cc[nH]c12` [III-m-1] were, in that order, 2100 nM and 4500 nM.
On to `Cc1ccc(Oc2nc(-c3ccncc3)nc3nn(C)cc23)cc1NC(=O)c1cccc(C(F)(F)F)c1` [IV-c-2], for which the figures for the GI50 at KIF5B-RET-BaF3 and at CCDC6-RET-BaF3 were 2840 nM and 1680 nM, respectively.
The corresponding values for `Cc1ccc(Oc2cc(-c3cn[nH]c3)nc3[nH]ccc23)cc1C(=O)Nc1ccc(CN2CCN(C)CC2)c(C(F)(F)F)c1` [V-n-12] are 673 nM and 566 nM.
Consider `CN1CCN(Cc2ccc(NC(=O)c3cc(Oc4nc(-c5ccc(N)cc5)nc5c4ncn5C)ccc3Cl)cc2C(F)(F)F)CC1` [I-o-9], for which the values for the GI50 on KIF5B-RET-BaF3 and at CCDC6-RET-BaF3 were 1500 nM and 1390 nM, respectively.
The corresponding values for `CN1CCN(Cc2ccc(NC(=O)c3cc(Oc4nc(-c5ccc(Cl)cc5)nc5c4ncn5C)ccc3Cl)cc2C(F)(F)F)CC1` [I-o-5] are 1390 nM and 1320 nM.
The like results for `Cc1ccc(C(=O)Nc2ccc(CN3CCN(C)CC3)c(C(F)(F)F)c2)cc1Oc1nc(NC2CC2)nc2c1cnn2C` [II-m-14] were, in that order, 21.6 nM and 9.31 nM.
The corresponding values for `CN1CCN(Cc2ccc(NC(=O)c3cc(Oc4nc(-c5ccncc5)nc5c4cnn5C)ccc3Cl)cc2C(F)(F)F)CC1` [II-o-2] are 130 nM and 108 nM.
Regarding `Cc1ccc(C(=O)Nc2ccc(CN3CCN(C)CC3)c(C(F)(F)F)c2)cc1Oc1nc(Nc2cccnc2)nc2c1cnn2C` [II-m-11], the GI50 on KIF5B-RET-BaF3 was 14.9 nM; on CCDC6-RET-BaF3, 31.8 nM.
The like results for `Cc1ccc(Oc2nc(-c3ccc(Cl)cc3)nc3nn(C)cc23)cc1C(=O)Nc1ccc(CN2CCN(C)CC2)c(C(F)(F)F)c1` [IV-n-5] were, in that order, 2320 nM and 2960 nM.
As to `Cc1ccc(Oc2nc(-c3cccc(N)c3)nc3c2ncn3C)cc1C(=O)Nc1ccc(CN2CCN(C)CC2)c(C(F)(F)F)c1` [I-n-9], the GI50 stood at 1480 nM at KIF5B-RET-BaF3 and 1550 nM at CCDC6-RET-BaF3.
The corresponding values for `Cc1ccc(C(=O)Nc2ccc(CN3CCN(C)CC3)c(C(F)(F)F)c2)cc1Oc1nc(-c2ccsc2)nc2c1cnn2C` [II-m-10] are 36.4 nM and 449 nM.
The like results for `Cc1ccc(Nc2nc(Oc3cc(C(=O)Nc4ccc(CN5CCN(C)CC5)c(C(F)(F)F)c4)ccc3C)c3cnn(C)c3n2)cc1` [II-m-13] were, in that order, 172 nM and 253 nM.
The corresponding values for `CN1CCN(Cc2ccc(NC(=O)c3cc(Oc4nc(-c5cccc(O)c5)nc5nn(C)cc45)ccc3Cl)cc2C(F)(F)F)CC1` [IV-o-6] are 3400 nM and 4020 nM.
As to `CN1CCN(Cc2ccc(NC(=O)c3cc(Oc4nc(-c5ccsc5)nc5nn(C)cc45)ccc3Cl)cc2C(F)(F)F)CC1` [IV-o-11], the GI50 amounted to 1620 nM at KIF5B-RET-BaF3 and 3030 nM on CCDC6-RET-BaF3.
The corresponding values for `CN1CCN(Cc2ccc(NC(=O)c3cc(Oc4nc(-c5ccccc5)nc5c4ncn5C)ccc3Cl)cc2C(F)(F)F)CC1` [I-o-3] are 1380 nM and 1380 nM.
The corresponding values for `Cc1ccc(NC(=O)c2ccc(CN3CCN(C)CC3)c(C(F)(F)F)c2)cc1Oc1nc(-c2ccncc2)nc2ccsc12` [VI-i-2] are 7420 nM and 5700 nM.
Take `CN1CCN(Cc2ccc(C(=O)Nc3cccc(Oc4nc(-c5ccncc5)nc5cc[nH]c45)c3)cc2C(F)(F)F)CC1` [III-h-2]: the GI50 is 16.4 nM on KIF5B-RET-BaF3 and 16.8 nM on CCDC6-RET-BaF3.
The like results for `Cc1ccc(C(=O)Nc2ccc(CN3CCN(C)CC3)c(C(F)(F)F)c2)cc1Oc1nc(-c2ccoc2)nc2c1cnn2C` [II-m-9] were, in that order, 14.6 nM and 75.1 nM.
For the molecule `Cc1ccc(Oc2nc(-c3cccnc3)nc3c2cnn3C)cc1NC(=O)c1ccc(CN2CCN(C)CC2)c(C(F)(F)F)c1` [II-j-1], the GI50 was 4420 nM on KIF5B-RET-BaF3 and 4170 nM at CCDC6-RET-BaF3.
The like results for `Cc1cn(-c2cc(NC(=O)c3ccc(C)c(Oc4nc(-c5ccncc5)nc5c4cnn5C)c3)cc(C(F)(F)F)c2)cn1` [II-t-2] were, in that order, 2620 nM and 1570 nM.
The like results for `Cc1ccc(Oc2nc(-c3cccnc3)nc3ccn(C)c23)cc1NC(=O)c1ccc(CN2CCN(C)CC2)c(C(F)(F)F)c1` [III-j-5] were, in that order, 3100 nM and 4260 nM.
